# Results reported in ChEMBL document CHEMBL5696442, “Discovery of type II inhibitors of TGFβ-activated kinase 1 (TAK1) and mitogen-activated protein kinase kinase kinase kinase 2 (MAP4K2)” (J Med Chem, 2015).
# Calls of active or inactive are those of the source. The calls are words filed in the database; no cut-off is given here.
# Key:
# [1] = biological target: Serine/threonine-protein kinase 38-like (Homo sapiens) (UniProt Q9Y2H1); assay: Inhibition of NDR2 ACT labeling site in human Huh-7 cell lysate at 1 uM by KiNativ Profiling analysis relative to control; assay type: subcellular
# [2] = biological target: Tyrosine-protein kinase Fer (Homo sapiens, UniProt P16591); assay: Inhibition of FER Lys1 labeling site in human Huh-7 cells at 1 uM by KiNativ Profiling analysis relative to control; assay type: cell-based
# [3] = biological target: Cyclin-dependent kinase 11B (Homo sapiens) (UniProt P21127); assay: Inhibition of CDK11 Lys2 labeling site in human Huh-7 cell lysate at 1 uM by KiNativ Profiling analysis relative to control; assay type: subcellular
# [4] = biological target: T1, Interleukin-1 receptor-associated kinase 4 (Homo sapiens) (UniProt Q9NWZ3); assay: Inhibition of IRAK4 (unknown origin) at 1 uM by Ambit Kinomescan binding assay relative to control
# T1 sequence (whole entry): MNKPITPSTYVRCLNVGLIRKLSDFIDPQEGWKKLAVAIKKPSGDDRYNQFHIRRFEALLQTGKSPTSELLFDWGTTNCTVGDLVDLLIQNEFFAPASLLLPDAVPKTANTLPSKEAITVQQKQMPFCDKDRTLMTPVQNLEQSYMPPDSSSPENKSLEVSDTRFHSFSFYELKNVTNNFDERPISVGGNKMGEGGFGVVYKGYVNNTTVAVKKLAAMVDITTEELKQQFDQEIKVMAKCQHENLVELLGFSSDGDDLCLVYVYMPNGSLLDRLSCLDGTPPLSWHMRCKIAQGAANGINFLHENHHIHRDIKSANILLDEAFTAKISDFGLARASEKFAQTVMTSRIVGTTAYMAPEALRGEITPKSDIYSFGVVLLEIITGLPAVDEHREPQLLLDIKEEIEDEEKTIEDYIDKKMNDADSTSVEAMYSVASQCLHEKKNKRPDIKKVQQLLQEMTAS
# [5] = biological target: Serine/threonine-protein kinase 38 (Homo sapiens) (UniProt Q15208); assay: Inhibition of NDR1 Lys2 labeling site in human A-375 cells at 5 uM by KiNativ Profiling analysis relative to control; assay type: cell-based
# [6] = biological target: Casein kinase I isoform epsilon (Homo sapiens) (UniProt P49674); assay: Inhibition of CSNK1E (unknown origin) at 1 uM by Ambit Kinomescan binding assay relative to control
# [7] = biological target: T2, Serine/threonine-protein kinase Chk1 (Homo sapiens) (UniProt O14757); assay: Inhibition of CHEK1 (unknown origin) at 10 uM by Ambit Kinomescan binding assay
# T2 sequence (whole entry): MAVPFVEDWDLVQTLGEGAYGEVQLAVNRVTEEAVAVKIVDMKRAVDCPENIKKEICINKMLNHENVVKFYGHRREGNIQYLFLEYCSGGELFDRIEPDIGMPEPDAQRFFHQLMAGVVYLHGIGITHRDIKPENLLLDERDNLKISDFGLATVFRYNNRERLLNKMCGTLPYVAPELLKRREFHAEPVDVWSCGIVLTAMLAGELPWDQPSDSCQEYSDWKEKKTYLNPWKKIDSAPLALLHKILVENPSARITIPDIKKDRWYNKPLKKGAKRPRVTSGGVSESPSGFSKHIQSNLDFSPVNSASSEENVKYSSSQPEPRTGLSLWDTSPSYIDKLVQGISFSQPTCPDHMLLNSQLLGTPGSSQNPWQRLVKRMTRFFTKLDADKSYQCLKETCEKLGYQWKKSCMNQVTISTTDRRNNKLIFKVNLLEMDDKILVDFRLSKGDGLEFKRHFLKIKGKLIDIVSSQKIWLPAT
# [8] = biological target: Serine/threonine-protein kinase PAK 3 (Homo sapiens) (UniProt O75914); assay: Inhibition of PAK3 (unknown origin) at 10 uM by Ambit Kinomescan binding assay
# [9] = biological target: Ribosomal protein S6 kinase alpha-3 (Homo sapiens) (UniProt P51812); assay: Inhibition of RSK2 Domain 1 ACT labeling site harbouring LTDFGLSKESIDHEKK in human Huh-7 cells at 10 uM by KiNativ Profiling analysis relative to control; assay type: cell-based
# [10] = biological target: Casein kinase I isoform gamma-2 (Homo sapiens) (UniProt P78368); assay: Inhibition of CSNK1G2 (unknown origin) at 10 uM by Ambit Kinomescan binding assay
# [11] = system: Epidermal growth factor receptor (Homo sapiens), P00533 [G719S]; assay: Inhibition of EGFR G719S mutant (unknown origin) at 10 uM by Ambit Kinomescan binding assay relative to control
# [12] = biological target: Tyrosine-protein kinase ABL1 (Homo sapiens, UniProt P00519); assay: Inhibition of ABL1 (unknown origin) at 10 uM by Ambit Kinomescan binding assay relative to control; values are per cent of control
# [13] = biological target: RAC-beta serine/threonine-protein kinase (Homo sapiens) (UniProt P31751); assay: Inhibition of AKT2 (unknown origin) at 10 uM by Ambit Kinomescan binding assay
# [14] = Inhibition of MLK1/4 K2 labeling site in human Huh-7 cells at 1 uM by KiNativ Profiling analysis relative to control; details: condition cancer
# [15] = biological target: T3, Dual specificity mitogen-activated protein kinase kinase 6 (Homo sapiens) (UniProt P52564); assay: Inhibition of MEK6 (unknown origin) at 10 uM by Ambit Kinomescan binding assay
# T3 sequence (whole entry): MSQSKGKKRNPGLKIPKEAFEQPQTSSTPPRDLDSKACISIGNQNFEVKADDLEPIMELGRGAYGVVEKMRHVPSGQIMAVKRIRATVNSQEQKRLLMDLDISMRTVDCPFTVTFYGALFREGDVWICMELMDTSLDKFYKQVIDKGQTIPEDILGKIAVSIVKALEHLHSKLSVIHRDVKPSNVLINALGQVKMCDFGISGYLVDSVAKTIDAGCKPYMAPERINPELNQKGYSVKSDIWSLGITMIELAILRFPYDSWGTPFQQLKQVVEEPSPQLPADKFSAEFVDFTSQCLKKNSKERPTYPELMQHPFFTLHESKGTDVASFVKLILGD
# [16] = biological target: Cyclin-dependent kinase 8/19 (Homo sapiens) (UniProt P49336+Q9BWU1); assay: Inhibition of CDK8/11 K2 labeling site in human Huh-7 cells at 1 uM by KiNativ Profiling analysis relative to control; assay type: cell-based
# Chain of Cyclin-dependent kinase 8/19 (Homo sapiens) (P49336 whole entry, looked up): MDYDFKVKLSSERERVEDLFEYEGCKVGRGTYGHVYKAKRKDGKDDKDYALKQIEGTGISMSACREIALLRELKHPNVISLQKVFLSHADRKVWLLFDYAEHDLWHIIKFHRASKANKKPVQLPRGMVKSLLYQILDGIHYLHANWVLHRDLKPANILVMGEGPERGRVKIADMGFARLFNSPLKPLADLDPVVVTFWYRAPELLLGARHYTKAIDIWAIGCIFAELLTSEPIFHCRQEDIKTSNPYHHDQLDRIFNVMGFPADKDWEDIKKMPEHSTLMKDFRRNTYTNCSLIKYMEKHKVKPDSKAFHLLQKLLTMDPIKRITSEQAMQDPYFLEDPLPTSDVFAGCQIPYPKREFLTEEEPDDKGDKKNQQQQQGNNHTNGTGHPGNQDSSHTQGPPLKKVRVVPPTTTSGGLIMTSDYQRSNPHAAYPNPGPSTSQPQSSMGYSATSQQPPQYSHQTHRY
# Chain of Cyclin-dependent kinase 8/19 (Homo sapiens) (Q9BWU1 whole entry, looked up): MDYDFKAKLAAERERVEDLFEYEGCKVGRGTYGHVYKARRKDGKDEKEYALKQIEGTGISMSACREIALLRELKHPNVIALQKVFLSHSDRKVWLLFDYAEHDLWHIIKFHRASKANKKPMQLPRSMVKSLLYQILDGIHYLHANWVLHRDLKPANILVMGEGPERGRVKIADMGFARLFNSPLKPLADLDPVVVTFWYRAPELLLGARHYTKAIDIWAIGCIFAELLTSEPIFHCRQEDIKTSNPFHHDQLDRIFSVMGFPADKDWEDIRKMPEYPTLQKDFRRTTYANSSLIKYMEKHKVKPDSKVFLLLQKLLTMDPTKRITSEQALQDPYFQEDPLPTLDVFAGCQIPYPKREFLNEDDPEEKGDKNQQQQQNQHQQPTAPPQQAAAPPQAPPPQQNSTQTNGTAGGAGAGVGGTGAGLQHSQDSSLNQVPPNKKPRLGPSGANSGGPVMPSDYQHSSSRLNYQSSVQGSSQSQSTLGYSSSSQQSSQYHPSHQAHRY
# Chain of Tyrosine-protein kinase Fer (P16591 whole entry, looked up): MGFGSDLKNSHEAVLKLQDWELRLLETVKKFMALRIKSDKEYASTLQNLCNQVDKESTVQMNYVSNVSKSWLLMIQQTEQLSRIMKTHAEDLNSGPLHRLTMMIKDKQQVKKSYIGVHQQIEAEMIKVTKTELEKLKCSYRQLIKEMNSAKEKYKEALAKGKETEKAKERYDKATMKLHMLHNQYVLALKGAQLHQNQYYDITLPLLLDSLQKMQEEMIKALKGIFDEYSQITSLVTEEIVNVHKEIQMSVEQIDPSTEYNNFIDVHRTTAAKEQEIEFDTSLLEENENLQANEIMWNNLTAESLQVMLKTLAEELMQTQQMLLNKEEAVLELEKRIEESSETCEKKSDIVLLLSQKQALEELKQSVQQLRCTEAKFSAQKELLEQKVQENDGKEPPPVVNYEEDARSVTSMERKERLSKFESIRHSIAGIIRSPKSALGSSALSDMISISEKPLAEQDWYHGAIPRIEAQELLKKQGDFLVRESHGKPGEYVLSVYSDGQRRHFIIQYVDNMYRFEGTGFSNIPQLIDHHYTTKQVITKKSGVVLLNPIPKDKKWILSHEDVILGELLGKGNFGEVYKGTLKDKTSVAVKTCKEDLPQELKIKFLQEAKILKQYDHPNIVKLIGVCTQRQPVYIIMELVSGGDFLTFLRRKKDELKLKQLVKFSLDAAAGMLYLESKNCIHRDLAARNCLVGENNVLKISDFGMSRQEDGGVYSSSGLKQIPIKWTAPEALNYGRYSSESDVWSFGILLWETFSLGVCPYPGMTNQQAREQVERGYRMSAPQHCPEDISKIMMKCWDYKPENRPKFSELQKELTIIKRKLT
# Chain of Cyclin-dependent kinase 11B (Homo sapiens) (P21127 whole entry): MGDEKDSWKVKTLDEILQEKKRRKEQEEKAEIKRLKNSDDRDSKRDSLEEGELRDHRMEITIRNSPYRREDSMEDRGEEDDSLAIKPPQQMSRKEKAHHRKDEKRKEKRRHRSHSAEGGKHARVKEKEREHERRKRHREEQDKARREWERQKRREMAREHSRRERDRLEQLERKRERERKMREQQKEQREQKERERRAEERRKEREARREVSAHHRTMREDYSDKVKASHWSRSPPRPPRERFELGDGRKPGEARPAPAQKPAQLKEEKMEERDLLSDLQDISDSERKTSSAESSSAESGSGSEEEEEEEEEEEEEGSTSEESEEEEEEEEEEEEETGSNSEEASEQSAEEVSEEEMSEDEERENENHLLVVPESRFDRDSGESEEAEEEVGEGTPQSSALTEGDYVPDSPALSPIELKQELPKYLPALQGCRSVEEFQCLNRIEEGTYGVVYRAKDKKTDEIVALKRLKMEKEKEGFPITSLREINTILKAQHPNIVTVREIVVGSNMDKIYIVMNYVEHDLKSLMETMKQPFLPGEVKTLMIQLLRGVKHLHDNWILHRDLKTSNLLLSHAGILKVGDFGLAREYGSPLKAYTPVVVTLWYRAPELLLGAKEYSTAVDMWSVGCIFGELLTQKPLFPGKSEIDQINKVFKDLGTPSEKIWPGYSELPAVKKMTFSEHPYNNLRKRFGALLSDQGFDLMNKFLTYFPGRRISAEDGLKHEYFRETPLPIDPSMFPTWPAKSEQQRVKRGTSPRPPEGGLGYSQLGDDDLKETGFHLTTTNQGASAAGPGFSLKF
# Chain of Casein kinase I isoform gamma-2 (Homo sapiens) (P78368 whole entry, looked up, canonical isoform): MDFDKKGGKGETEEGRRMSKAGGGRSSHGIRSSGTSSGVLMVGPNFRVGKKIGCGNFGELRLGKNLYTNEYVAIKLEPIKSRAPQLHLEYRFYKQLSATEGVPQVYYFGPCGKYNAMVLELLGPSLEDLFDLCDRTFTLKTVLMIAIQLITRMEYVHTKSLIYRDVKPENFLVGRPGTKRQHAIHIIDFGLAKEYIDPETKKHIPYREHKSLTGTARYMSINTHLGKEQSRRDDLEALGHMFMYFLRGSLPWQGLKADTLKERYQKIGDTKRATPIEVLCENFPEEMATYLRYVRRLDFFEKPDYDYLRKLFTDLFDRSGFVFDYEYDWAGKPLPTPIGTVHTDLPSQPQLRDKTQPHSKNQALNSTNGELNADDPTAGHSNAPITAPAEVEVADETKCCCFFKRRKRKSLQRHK
# Chain of Serine/threonine-protein kinase 38-like (Homo sapiens) (Q9Y2H1 2-464 limits assumed): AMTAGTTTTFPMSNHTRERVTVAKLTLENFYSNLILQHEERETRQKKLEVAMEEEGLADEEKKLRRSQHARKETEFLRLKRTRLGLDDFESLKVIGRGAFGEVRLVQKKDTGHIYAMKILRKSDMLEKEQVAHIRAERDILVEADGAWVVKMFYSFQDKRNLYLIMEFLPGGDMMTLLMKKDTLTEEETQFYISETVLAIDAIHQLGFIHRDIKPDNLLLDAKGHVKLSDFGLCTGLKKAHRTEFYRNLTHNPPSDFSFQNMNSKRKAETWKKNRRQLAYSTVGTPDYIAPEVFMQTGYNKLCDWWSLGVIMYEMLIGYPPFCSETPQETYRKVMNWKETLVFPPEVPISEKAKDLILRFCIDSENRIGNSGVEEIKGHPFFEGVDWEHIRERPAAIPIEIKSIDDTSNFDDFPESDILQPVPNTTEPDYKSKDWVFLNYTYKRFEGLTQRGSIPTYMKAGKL
# Chain of Ribosomal protein S6 kinase alpha-3 (Homo sapiens) (P51812 whole entry, the tested form may be a part, canonical isoform): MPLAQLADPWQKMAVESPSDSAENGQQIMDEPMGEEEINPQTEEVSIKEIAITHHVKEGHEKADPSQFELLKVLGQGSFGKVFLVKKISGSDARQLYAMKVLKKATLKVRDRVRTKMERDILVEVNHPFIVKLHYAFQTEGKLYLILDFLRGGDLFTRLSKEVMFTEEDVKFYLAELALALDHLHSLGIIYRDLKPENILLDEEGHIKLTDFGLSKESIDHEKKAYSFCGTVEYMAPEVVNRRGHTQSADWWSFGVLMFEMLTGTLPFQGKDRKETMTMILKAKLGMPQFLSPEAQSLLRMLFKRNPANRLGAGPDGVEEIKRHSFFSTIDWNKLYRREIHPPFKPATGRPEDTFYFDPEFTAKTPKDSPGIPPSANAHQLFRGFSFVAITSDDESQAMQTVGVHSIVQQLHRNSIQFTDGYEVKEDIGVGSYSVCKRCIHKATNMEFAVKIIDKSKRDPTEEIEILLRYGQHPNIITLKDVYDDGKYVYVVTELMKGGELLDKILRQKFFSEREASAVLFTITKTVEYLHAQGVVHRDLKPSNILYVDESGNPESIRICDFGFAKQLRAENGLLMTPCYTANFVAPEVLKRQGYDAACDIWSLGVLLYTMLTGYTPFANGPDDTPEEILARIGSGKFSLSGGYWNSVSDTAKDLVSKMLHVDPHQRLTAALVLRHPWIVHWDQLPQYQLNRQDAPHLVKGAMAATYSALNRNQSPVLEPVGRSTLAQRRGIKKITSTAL
# Chain of Serine/threonine-protein kinase 38 (Homo sapiens) (Q15208 2-465 limits assumed): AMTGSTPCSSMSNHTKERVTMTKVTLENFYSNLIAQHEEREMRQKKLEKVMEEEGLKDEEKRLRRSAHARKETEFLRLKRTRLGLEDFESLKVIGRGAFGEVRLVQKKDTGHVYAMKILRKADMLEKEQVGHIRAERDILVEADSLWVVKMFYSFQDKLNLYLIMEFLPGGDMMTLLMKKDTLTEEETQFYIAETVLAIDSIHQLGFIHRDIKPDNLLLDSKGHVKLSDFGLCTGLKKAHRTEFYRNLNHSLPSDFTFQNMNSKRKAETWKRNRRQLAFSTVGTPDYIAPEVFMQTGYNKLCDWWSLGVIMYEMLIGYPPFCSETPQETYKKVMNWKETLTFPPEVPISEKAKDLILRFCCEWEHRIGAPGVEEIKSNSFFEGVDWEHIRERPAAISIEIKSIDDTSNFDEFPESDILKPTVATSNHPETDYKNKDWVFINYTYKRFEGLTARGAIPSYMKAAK
smiles,measurement,setting,value
CNc1cc(Oc2cc(C(=O)Nc3cc(N4CCN(C)CC4)cc(C(F)(F)F)c3)ccc2C)ncn1,inhibition,[1],4.2%
same,inhibition,[2],-7.1%
same,inhibition,[3],-8.6%
CCN1CCN(Cc2ccc(NC(=O)c3ccc(C)c(/C=C/c4cnc5[nH]ccc5c4OC)c3)cc2C(F)(F)F)CC1,inhibition,[4],100%
same,inhibition,[5],25.3%
same,inhibition,[6],80%
CCN1CCN(Cc2ccc(NC(=O)c3ccc(C)c(Oc4ccnc5[nH]ccc45)c3)cc2C(F)(F)F)CC1,inhibition,[7],inactive
same,inhibition,[8],inactive
same,inhibition,[9],-8%
same,inhibition,[10],inactive
same,inhibition,[11],14%
same,percent of control,[12],0.1%
same,inhibition,[13],inactive
same,inhibition at 1 µM,[14],1.5%
same,inhibition,[15],inactive
same,inhibition,[16],-4.7%
